Measured values published in patent publication US20200367756A1, “METHOD AND SYSTEM FOR IN VIVO DETECTION OF ADIPOSE TISSUE BROWNING” (Agency for Science, Technology and Research, priority 2018, published 2020).
“Also recorded” adds a separate entry of the source.

Assays:
WAT and BAT adipocytes = assay: H&E staining of WAT and BAT of treated mice; format: in vivo, BALB/c nude mice
Experimental: (§1) Mice (n=4; each group) were injected daily with either CL 316, 243 hydrate (1 mg/kg body weight intraperitoneally in test group (CL) or equal volume of saline in control (C) group animals for 7 days. After the in vivo DRS experiment, the mice was euthanized and fresh WAT tissues in control (C) and CL group were extracted and immediately frozen for RNA and protein expression analyses. WAT from the inguinal region and BAT from the interscapular region were stored in 10% normal buffered formalin (NBF) for hematoxylin and eosin (H&E) staining and Immunohistochemistry (IHC). BAT tissues extracted from mice injected with saline is marked as C BAT while BAT from CL injected mice as CL BAT. Similarly, WAT and beige refer to the WATs in saline (control) and CL injected group, respectively.
(§2) In various example embodiments, H&E staining and UCP1 IHC were performed by the Advanced Molecular Pathology Laboratory (AMPL) at the Institute of Molecular and Cell Biology (IMCB), A*STAR, according to standard operating procedures. 1:50 dilution of UCP1 antibody (Abcam) at pH 6.0 was used for UCP1 IHC. All the images were obtained by using Olympus microscope equipped with DS-L3+Filc camera with a ×20 objective lens. Software ImageJ was used to analyse the images.

Ucp1 [1] = assay: Real-Time qPCR of Ucp1 mRNA in adipose tissues of treated mice; format: in vivo, BALB/c nude mice; conditions: normalized to Gapdh mRNA
Experimental: as §1
In various example embodiments, total RNA was extracted with the RNeasy Lipid Tissue Mini Kit (Qiagen, Hilden, Germany) according to the manufacturer's instruction and Real-Time PCR was conducted using UCP1 primer pair UCP1_F: 5′-GGCCTCTACGACTCAGTCCA-3′ and UCP1_R: 5′-TAAGCCGGCTGAGATCTTGT-3′. GAPDH was used to normalize the relative mRNA expression by using a primer pair GAPDH_F: 5′-CAA GGT CAT CCA CTT-3′ and GAPDH_R: 5′-GGC CAT CCA CAG TCT GG-3′. The results are represented as mean±SE (n=4 in each group).

[2] = test system: WAT (browning of white adipose tissue); assay: In vivo DRS measurement of lipid fraction (browning marker) in adipose tissue; set-up: species or system BALB/c nude mice
From the text: In particular, FIG. 5 depicts a schematic drawing of an example setup of in vivo DRS measurement system 500 for obtaining (e.g., generating or measuring) diffuse reflectance spectrum information (raw diffuse reflectance spectrum information) in a mouse model with partial skin incision using DRS spectroscopy in the NIR II optical window. In this regard, browning was induced in mice for 7 days by β-adrenergic administration followed by DRS measurement in the 1050 to 1350 nm range using an excitation-collection fiber probe 506 with source-detector fiber separations 508 configured to achieve a desired or sufficient depth of interrogation. The measured diffuse reflectance spectrum information obtained at the adipose tissue site was then processed according to various example embodiments to extract or derive water and lipid chromophore fractions (or water and lipid proportions or ratios) at the adipose tissue site in the 1050 nm to 1350 nm wavelength range. The water and lipid chromophore fractions were estimated from the measured DRS spectra by employing a lookup table (LUT) based on inverse Monte-Carlo modelling. In other words, the measured DRS spectra at the adipose tissue site is spectrally unmixed particularly for water and lipid chromophores using the Monte-Carlo based LUT within the wavelength range of 1050 nm to 1400 nm, or more preferably, 1050 nm to 1350 nm. […]

Ucp1 [3] = assay: UCP1 immunohistochemistry (IHC) of WAT and BAT of treated mice; format: in vivo, BALB/c nude mice
Experimental: as §1, §2

Ucp1 [4] = assay: Western blot analysis of UCP1 protein in adipose tissues of treated mice; format: in vivo, BALB/c nude mice; conditions: loading control β-ACTIN, vs saline WAT, hydrate
Experimental: as §1
In various example embodiments, total protein lysates isolation from adipose tissues extracted from mice administered with either saline or CL (n=4, each group) was done in RadioImmunoPrecipitation Assay (RIPA) lysis buffer and quantified using the Biorad assay. Equal volume of proteins were loaded onto 10% Sodium Dodecyl Sulfate-Polyacrylamide Gel Electrophoresis (SDS-PAGE) followed by transfer to the PolyVinyliDene Fluoride (PVDF) membrane. […]

[5] = inguinal WAT, vs saline control WAT, hydrate
[6] = interscapular BAT, CL vs saline

C[C@H](Cc1ccc2c(c1)OC(C(=O)[O-])(C(=O)[O-])O2)NC[C@H](O)c1cccc(Cl)c1.[Na+].[Na+] [CL, CL 316, 243 hydrate]
adipocyte morphology in WAT (beige), H&E staining (WAT and BAT adipocytes; [5]): subpopulation of multilocular adipocytes are emerging
adipocyte appearance in BAT, H&E staining (WAT and BAT adipocytes; [6]): appearance was not changed
Ucp1 mRNA expression in BAT (Ucp1 [1]; BAT (CL) vs BAT (C)): did not significantly change
Ucp1 mRNA expression in WAT (beige) relative to saline control (WAT) (Ucp1 [1]; 1 mg/kg i.p. daily, 7 days): significantly enhanced
lipid fraction (SLW) of beige adipose tissue (CL treated WAT) ([2]; mice, 1 mg/kg intraperitoneally daily for 7 days, DRS 1050 to 1350 nm, MCLUT unmixing, control WAT 0.70±0.095, BAT 0.518±0.112): 0.628±0.076 a.u.
extent of WAT browning indicated by calculated SLW ([2]; over a period of 7 days, CL treated animals): about 50%
UCP1 IHC signal in WAT (beige) (Ucp1 [3]; [5]): significant emergence of UCP1 expression; also recorded: increased UCP1 staining
UCP1 IHC signal in BAT (Ucp1 [3]; [6]): not changed
UCP1 protein expression in WAT (beige) (Ucp1 [4]): significantly induced; also recorded: higher expression
